Consider one compound from ChEMBL document CHEMBL5375954, “Discovery and Evaluation of C6-Substituted Pyrazolopyrimidine-Based Bisphosphonate Inhibitors of the Human Geranylgeranyl Pyrophosphate Synthase and Evaluation of Their Antitumor Efficacy in Multiple Myeloma, Pancreatic Ductal Adenocarcinoma, and Colorectal Cancer” (J Med Chem, 2023).

Data set [1] addresses T1, Geranylgeranyl pyrophosphate synthase (Homo sapiens, UniProt O95749).
T1 sequence (O95749 whole entry): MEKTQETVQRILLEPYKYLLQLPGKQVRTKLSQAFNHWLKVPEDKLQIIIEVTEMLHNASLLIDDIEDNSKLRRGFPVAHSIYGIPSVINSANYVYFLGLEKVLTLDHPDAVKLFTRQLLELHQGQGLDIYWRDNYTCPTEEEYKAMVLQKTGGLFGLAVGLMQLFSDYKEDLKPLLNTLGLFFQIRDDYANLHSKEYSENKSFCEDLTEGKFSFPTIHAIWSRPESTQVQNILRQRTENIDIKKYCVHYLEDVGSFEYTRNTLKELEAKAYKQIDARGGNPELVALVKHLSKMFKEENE
Kind of data set: Inhibition of N-terminal His6 tagged human GGPPS expressed in Escherichia coli BL21(DE3) cells in presence of FPP and [14C]IPP by scintillation counting analysis.

Data set [2] has as its target T2, Farnesyl pyrophosphate synthase (Homo sapiens) (UniProt P14324).
T2 sequence (whole entry): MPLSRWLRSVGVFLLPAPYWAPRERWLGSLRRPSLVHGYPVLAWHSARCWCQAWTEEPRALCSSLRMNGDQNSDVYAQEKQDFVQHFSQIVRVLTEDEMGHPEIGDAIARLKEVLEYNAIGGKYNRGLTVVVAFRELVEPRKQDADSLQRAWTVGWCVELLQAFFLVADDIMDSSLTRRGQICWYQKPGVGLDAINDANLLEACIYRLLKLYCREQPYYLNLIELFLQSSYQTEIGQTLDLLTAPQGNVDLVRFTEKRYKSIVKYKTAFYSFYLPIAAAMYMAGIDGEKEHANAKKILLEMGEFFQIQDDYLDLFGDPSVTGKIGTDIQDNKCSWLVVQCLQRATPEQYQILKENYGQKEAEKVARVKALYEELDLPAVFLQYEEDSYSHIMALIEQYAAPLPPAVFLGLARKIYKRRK
Kind of data set: Inhibition of N-terminally His6-tagged recombinant human FPPS expressed in Escherichia coli BL21(DE3) cells using […] and [14C]IPP as substrate at 10 uM preincubated for 10 mins followed by substrate addition by scintillation counting analysis relative to control.

Data set [3] relates to HCT-116. Kind of data set: Induction of apoptosis in human HCT-116 cells assessed as early apoptotic cells at 1 uM incubated for 72 hrs by APC-Annexin-V/7-AAD staining based flow cytometry (reference value: 1.16%). It is filed as functional. (In flow cytometry, cells or beads pass a laser one at a time.)
The next data set concerns MIA PaCa-2. Put plainly: Induction of apoptosis in human MIA PaCa-2 cells at 1 uM incubated for 72 hrs in presence of geranylgeraniol by APC-Annexin-V/7-AAD staining based flow cytometry. In kind it is functional, cell-based.
Data set [4] relates to HCT-116. Put plainly: Induction of apoptosis in human HCT-116 cells assessed as early apoptotic cells at 1 uM incubated for 72 hrs in presence of geranylgeraniol by APC-Annexin-V/7-AAD staining based flow cytometry (reference value: 1.16%). In kind it is functional.
The subject of data set [5] is HCT-116. Put plainly: Induction of apoptosis in human HCT-116 cells assessed as late apoptotic cells at 1 uM incubated for 72 hrs in presence of geranylgeraniol by APC-Annexin-V/7-AAD staining based flow cytometry (reference value: 0%). It is filed as functional.
The test system of data set [6] is HCT-116. Kind of data set: Induction of apoptosis in human HCT-116 cells assessed as necrotic cells at 1 uM incubated for 72 hrs in presence of geranylgeraniol by APC-Annexin-V/7-AAD staining based flow cytometry (reference value: 2.99%). In kind it is functional.
Data set [7] deals with T3, Ras-related protein Rap-1A (Homo sapiens) (UniProt P62834).
T3 sequence (whole entry): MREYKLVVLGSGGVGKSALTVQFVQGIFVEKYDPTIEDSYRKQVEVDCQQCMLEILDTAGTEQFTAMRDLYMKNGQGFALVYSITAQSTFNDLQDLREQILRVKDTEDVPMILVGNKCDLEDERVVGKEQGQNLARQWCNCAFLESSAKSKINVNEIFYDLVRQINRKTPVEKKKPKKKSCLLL
Kind of data set: Inhibition of RAP-1A prenylation in human HCT-116 cells incubated for 48 hrs by Western blot analysis. In kind it is cell-based. To be noted: dose 10-1000 nM. In general terms: Immunoblotting shows a protein as a band on a membrane.

In the next data set the test system is JJN-3. Put plainly: Antiproliferative activity against human JJN-3 cells harboring wild type KRAS at 0.1 to 10000 nM incubated for 72 hrs by MTS assay. It is filed as functional, cell-based. To be noted: dose 0.1-10000 nM. In general terms: Tetrazolium assays rely on reduction of a dye to a coloured formazan, in cell work by metabolically active cells.
The next data set concerns KMS-28PE. Put plainly: Antiproliferative activity against human KMS-28-PE cells harboring KRAS G12A mutant at 0.1 to 10000 nM incubated for 72 hrs by MTS assay. It is filed as functional, cell-based. To be noted: dose 0.1-10000 nM.
Data set [8] concerns RPMI-8226. Put plainly: Antiproliferative activity against human RPMI-8226 cells harboring KRAS G12A mutant at 0.1 to 10000 nM incubated for 72 hrs by MTS assay. Conditions: dose 0.1-10000 nM. It is filed as functional, cell-based.
The nature of data set [9]: Metabolic stability in Beagle dog liver microsomes assessed as compound remaining incubated for 45 mins in presence of NADPH by LC-MS/MS analysis. To be noted: 0.75 h. In kind it is ADME, Canis lupus familiaris, Microsome.
A short description of data set [10]: Metabolic stability in Beagle dog liver microsomes assessed as compound remaining incubated for 45 mins in absence of NADPH by LC-MS/MS analysis. In kind it is ADME, Canis lupus familiaris, Microsome. Conditions: 0.75 h.
Data set [11] can be described thus: Metabolic stability in human liver microsomes assessed as compound remaining incubated for 45 mins in presence of NADPH by LC-MS/MS analysis. It is filed as ADME, Microsome. To be noted: 0.75 h.
Data set [12] is described as follows: Metabolic stability in human liver microsomes assessed as compound remaining incubated for 45 mins in absence of NADPH by LC-MS/MS analysis. It is filed as ADME, Microsome. To be noted: 0.75 h.
Data set [13] can be described thus: MRT in Sprague-Dawley rat at 3 mg/kg, iv measured for 24 hrs by LC-MS/MS analysis. It is filed as ADME, organism-based. Conditions: in vivo.
The nature of data set [14]: Toxicity in NSG mouse xenografted with human RPMI-8226 cells assessed as reduction in body weight at 3 mg/kg, ip administered 3 times a week for 26 days and measured daily. In kind it is organism-based. To be noted: in vivo, time 26 day.
The nature of data set [15]: Toxicity in NSG mouse xenografted with human MIA PaCa-2 cells assessed as body weight gain at 3 mg/kg, ip administered 3 times a week for 26 days and measured daily. It is filed as organism-based. To be noted: in vivo, time 26 day.
Data set [16] can be described thus: Selectivity index, ratio of EC50 for human MIA PaCa-2 cells to EC50 for human RPMI-8226 cells. It is filed as functional.
The nature of data set [17]: Hepatotoxicity in female NSG mouse xenografted with human RPMI-8226 cells assessed as serum ALT level at 3 mg/kg, ip administered 3 times a week for 26 days and measured 48 hrs post last dose (reference value: 30 to 98 IU/L). It is filed as toxicity, organism-based. Conditions: in vivo, 672 h, time 28 day.
A short description of data set [18]: Hepatotoxicity in male NSG mouse xenografted with human RPMI-8226 cells assessed as eosinophilic degeneration at 3 mg/kg, ip administered 3 times a week for 26 days and measured 48 hrs post last dose by H and E staining based assay. In kind it is toxicity, organism-based. Conditions: in vivo, 672 h, time 28 day.
Data set [19] is described as follows: Hepatotoxicity in male NSG mouse xenografted with human RPMI-8226 cells assessed as inflammatory infiltrates at 3 mg/kg, ip administered 3 times a week for 26 days and measured 48 hrs post last dose by H and E staining based assay. It is filed as toxicity, organism-based. Conditions: in vivo, 672 h, time 28 day.
Data set [20] is described as follows: Hepatotoxicity in male NSG mouse xenografted with human RPMI-8226 cells assessed as prominent nucleoli at 3 mg/kg, ip administered 3 times a week for 26 days and measured 48 hrs post last dose by H and E staining based assay. In kind it is toxicity, organism-based. Conditions: in vivo, 672 h, time 28 day.
Data set [21] relates to RPMI-8226. Kind of data set: cells. To be noted: Homo sapiens, RPMI-8226, 72 h.

Molecules are shown by their SMILES. Calls of active or inactive are those of the source. The rule behind the calls is not given here.

The IC50 is the concentration that inhibits the measured activity by half. For orientation: inhibition means how much of the control response was suppressed. Broadly, the MRT is the average time that molecules of a dose stay in the body. By EC50 is commonly meant the midpoint of the concentration-response curve. Higher therefore signals a less potent agent. In the case of `Cn1ncc2c(NC(P(=O)(O)O)P(=O)(O)O)nc(-c3cccc(C(=O)Nc4ccc(C(F)(F)F)cc4)c3)nc21`, the IC50 in data set [1] was 0.012 µM. In addition, the inhibition in [2] was less than 10%; in data set [7], “Dose-Dependent Effect”. Also, the Activity in the data set on HCT-116 [3] is 20.7%; with HCT-116 [4] it was 1.54%; in the data set with HCT-116 [5], 2.17%; in the data set with HCT-116 [6], 2.55%; in data set [14], “Non-Toxic”; in data set [15], “Toxic”. Further, the Activity in data set [17] is 59 IU/L; in [18] it was “Non-Toxic”; in data set [19], “Non-Toxic”; in data set [20], “Non-Toxic”. The outcome with MIA PaCa-2 was inactive. Moreover, the result with JJN-3, in the data set with KMS-28PE and in the data set on RPMI-8226 [8] was Active. The Stability in data set [9] is 87.7%; in data set [10], 81.7%; in [11], 107%; in data set [12] it was 100%. Besides, the MRT in data set [13] amounted to 4.68 h. Besides, the “Ratio EC50” value in data set [16] is on record as approximately 10. In the data set on RPMI-8226 [21], this compound returned an EC50 of 0.07 µM.
